Experimental data taken from ChEMBL document CHEMBL1201862, “PubChem BioAssay data set” (2004).
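The compound was tested at five concentrations on cells cultured in 96-well plates, with a 48-hour exposure period. At the GI50, growth is halved.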 Calls of active or inactive are those of the source. Cut-off read from the data, not from the text of the source: active = GI50 up to about 1.1 µM and inactive = higher.

Columns and labels:
Assay in all cases: NCI-60 cell line screen, 48 h
HCC 2998 = tested on: HCC 2998
SK-MEL-5 = tested on: SK-MEL-5
NCI-H23 = tested on: NCI-H23
ACHN = tested on: ACHN
SF-295 = tested on: SF-295
U-251 = tested on: U-251
SNB-19 = tested on: SNB-19
UACC-257 = tested on: UACC-257
SW-620 = tested on: SW-620
COLO 205 = tested on: COLO 205
LOX IMVI = tested on: LOX IMVI
HL-60 = tested on: HL-60
TK-10 = tested on: TK-10
HT-29 = tested on: HT-29
SF-539 = tested on: SF-539
MDA-MB-231 = tested on: MDA-MB-231
OVCAR-5 = tested on: OVCAR-5
NCI-H460 = tested on: NCI-H460
HOP-62 = tested on: HOP-62
RPMI-8226 = tested on: RPMI-8226

Measured: GI50

C=CC(C)(C)c1cc([C@@H]2COc3cc(O)ccc3C2=O)c(O)c(O)c1OC
inactive: HCC 2998 61.8 µM | SK-MEL-5 19.7 µM | NCI-H23 17.1 µM | ACHN 17.6 µM | SF-295 39.4 µM | U-251 20.2 µM | SNB-19 23.5 µM | UACC-257 61.7 µM | SW-620 26.7 µM | COLO 205 26.7 µM | LOX IMVI 16.2 µM | HL-60 22.7 µM | TK-10 > 100 µM | HT-29 21.9 µM | SF-539 24.9 µM | MDA-MB-231 25.2 µM | OVCAR-5 31.4 µM | NCI-H460 66.4 µM

OC(C/C=N/N=C/CC(O)(C(F)(F)Cl)C(F)(F)Cl)(C(F)(F)Cl)C(F)(F)Cl
inactive: HCC 2998 > 10 µM | SK-MEL-5 > 10 µM | NCI-H23 > 10 µM | ACHN > 10 µM | SF-295 > 10 µM | U-251 > 10 µM | SNB-19 > 10 µM | UACC-257 > 10 µM | SW-620 > 10 µM | COLO 205 > 10 µM | LOX IMVI > 10 µM | HL-60 > 10 µM | TK-10 > 10 µM | HT-29 > 10 µM | SF-539 > 10 µM | MDA-MB-231 > 10 µM | HOP-62 > 10 µM | NCI-H460 > 10 µM | RPMI-8226 > 10 µM

NNC(=S)NCCNC(=S)NN
inactive: HCC 2998 > 100 µM | SK-MEL-5 > 100 µM | NCI-H23 > 100 µM | ACHN > 100 µM | SF-295 > 100 µM | U-251 > 100 µM | SNB-19 > 100 µM | UACC-257 > 100 µM | SW-620 > 100 µM | COLO 205 > 100 µM | LOX IMVI > 100 µM | HL-60 > 100 µM | HT-29 > 100 µM | MDA-MB-231 30.3 µM | HOP-62 > 100 µM | OVCAR-5 > 100 µM | NCI-H460 > 100 µM | RPMI-8226 > 100 µM

COc1ccc(Nc2nc3ccccc3nc2C(=O)O)cc1
inactive: HCC 2998 3.46 µM | SK-MEL-5 37.2 µM | NCI-H23 66.7 µM | ACHN 55 µM | SF-295 61.7 µM | U-251 64.3 µM | SNB-19 > 100 µM | UACC-257 > 100 µM | SW-620 37.6 µM | COLO 205 37.7 µM | LOX IMVI 60.1 µM | HL-60 63.8 µM | TK-10 > 100 µM | HT-29 > 100 µM | SF-539 > 100 µM | MDA-MB-231 > 100 µM | HOP-62 > 100 µM | OVCAR-5 > 100 µM | NCI-H460 23.6 µM

CC(C)OP(=O)(c1ccccc1)c1ccc2c(c1)OCCOCCOCCOCCO2 (stereo not given)
inactive: HCC 2998 > 100 µM | SK-MEL-5 > 100 µM | NCI-H23 > 100 µM | ACHN > 100 µM | SF-295 > 100 µM | SNB-19 > 100 µM | UACC-257 > 100 µM | SW-620 > 100 µM | COLO 205 > 100 µM | LOX IMVI > 100 µM | HL-60 > 100 µM | TK-10 > 100 µM | HT-29 > 100 µM | SF-539 > 100 µM | MDA-MB-231 > 100 µM | HOP-62 > 100 µM | NCI-H460 > 100 µM | RPMI-8226 > 100 µM

FC(F)(F)c1ccc2c(c1)nc(Cc1ccc(Cl)c(Cl)c1)n2CC1CCCN2CCCCC12 (stereo not given)
inactive: HCC 2998 8.95 µM | SK-MEL-5 16.4 µM | ACHN 22.8 µM | SF-295 22.9 µM | U-251 23.1 µM | SNB-19 18.9 µM | UACC-257 18.5 µM | SW-620 34.8 µM | COLO 205 16.1 µM | LOX IMVI 16.3 µM | HL-60 17.5 µM | TK-10 19.1 µM | HT-29 11.2 µM | SF-539 18.9 µM | MDA-MB-231 15.3 µM | HOP-62 31 µM | OVCAR-5 17.4 µM | NCI-H460 19.6 µM | RPMI-8226 57 µM

CSCC[C@H]1C(=O)N=C(N)N1C(=O)OCc1ccccc1
inactive: HCC 2998 95.9 µM | SK-MEL-5 46.8 µM | NCI-H23 17.1 µM | ACHN 34.7 µM | SF-295 61.7 µM | U-251 34.9 µM | SNB-19 > 100 µM | UACC-257 40.6 µM | SW-620 17.1 µM | COLO 205 18.7 µM | LOX IMVI 24.5 µM | HL-60 14.5 µM | TK-10 37.9 µM | HT-29 38.3 µM | MDA-MB-231 66.5 µM | HOP-62 > 100 µM | OVCAR-5 > 100 µM | NCI-H460 41 µM | RPMI-8226 60 µM
